Measured values reported in US8143252B2, “Tetrahalogenated compounds useful as inhibitors of angiogenesis” (The United States of America as represented by the …, priority 2006, dated 2012).
Like-named read-outs stand apart in the source and are kept apart here. Marks after values point to notes of the source that are not given here.

Legend:
[1] = system: rat aortic ring microvessel outgrowth; assay: rat aortic ring microvessel assay; format: cell-based; settings: for activity at 50 µM: Rattus norvegicus, 96 h, read-out: Average of Growth [%]
Protocol: The anti-angiogenic activity of the compounds was tested following the procedure described in Lepper, E. R., Ng, S. S., Gutschow, M., Weiss, M., Hauschildt, S., Hecker, T. K., Luzzio, F. A., Eger, K., Figg, W. D., J. Med. Chem. 2004, Comparative molecular field analysis and comparative molecular similarity indices analysis of thalidomide analogues as angiogenesis inhibitors; 47(9):2219-27. Twelve-well tissue culture-grade plates were covered with 250 μL Matrigel and allowed to gel for 30 to 45 minutes at 37° C., 5% CO2. Thoracic aortas were excised from 6- to 8-week-old male Sprague-Dawley rats, and the fibroadipose tissue was removed. The aortas were cut into 1 mm-long cross-sections and placed on the Matrigel coated wells. They were then covered with an additional 250 μL Matrigel and allowed to gel for 30 to 45 minutes at 37° C., 5% CO2. The rings were cultured for 24 hours in 1 mL EBM-2. After 24 hours, the medium was removed and replaced with 1 mL EBM-2 (Clonetics Corp.), supplemented with fetal bovine serum (2%), ascorbic acid, hydrocortisone, heparin, and amphotericin. Each selected compound was dissolved in DMSO and added to the EBM-2, before it was added to the well. Each selected compound was administered daily for four days at a daily dosage of 50 μM. Photos were taken on Day 5. DMSO alone was used as a control baseline. Carboxyamidotriazole (“CAI” from NCI, Bethesda, Md.) was used as a positive control. The vascular outgrowth was quantified using Adobe Photoshop (Adobe Systems, Inc., San Jose, Calif.) and the results are provided below in Tables 1 and 2.

[2] = system: Human prostate cancer cell lines (PC3s); assay: PC3 Proliferation Assay (hemocytometer count, trypan blue); format: cell-based; settings: 24 hours, cell count normalized to DMSO control, concentration not given
Protocol: (§1) Human umbilical vein endothelial cells (HUVECs (Clonetics)) were maintained in EGM-II, supplemented with a Bullet-Kit (Clonetics). Human prostate cancer cell lines (PC3s (ATCC)) were maintained in RPMI-1640, supplemented with 10% fetal bovine serum. Both cell lines were incubated at 37° C., in a 5% CO2 atmosphere. Cells were seeded onto 12-well plates at a density of 30,000 cells/well and allowed to attach overnight at 37° C. and 5% CO2. The culture medium was then aspirated, and fresh culture medium containing either the vehicle (0.5% DMSO) or drug solution in 0.5% DMSO was added. After 24 hours, media was removed, then cells were trypsinized and counted with a hemocytometer, using trypan blue to exclude non-viable cells. Each compound was tested in triplicate and the cell count was normalized to the controls, to give the % growth. The results are shown below in Tables 3 and 4, and in FIGS. 5 and 6.

[3] = system: HUVEC; assay: HUVEC Proliferation Assay, CCK-8 counting; format: cell-based, human; settings: 24 h incubation
Protocol: as §1
(§2) The experiments for the data in Table 5 was performed as described above, except that the Table 5 experiments were performed in […] (at two concentrations), and the CCK-8 Cell Counting Kit (Dajindo Technologies) was utilized after treating for 24 hours.

[4] = system: PC3; assay: PC3 Proliferation Assay, CCK-8 counting; format: cell-based, human; settings: 24 h incubation
Protocol: as §1, §2

[5] = system: Human umbilical vein endothelial cells (HUVECs); assay: HUVEC Proliferation Assay (hemocytometer count, trypan blue); format: cell-based; settings: 24 hours, cell count normalized to DMSO control, concentration not given
Protocol: as §1

[6] = system: rat aortic ring microvessel outgrowth; settings: 50 μM; data reported in Lepper et al., J. Med. Chem. 2004; cited from earlier work

CN1C(=O)NC(=O)C(C)(N2C(=O)c3c(F)c(F)c(F)c(F)c3C2=O)C1=O (racemic) [Compound 19a, 1,5-Dimethyl-5-(4,5,6,7-tetrafluoro-1,3-dihydro-1,3-dioxo-2H-isoindol-2-yl)-2,4,6-(1H,3H,5H)-pyrimidinetrione] showed an activity at 50 µM [1] of 0.12%.
For CCCN1C(=O)NC(=O)C(C)(N2C(=O)c3c(F)c(F)c(F)c(F)c3C2=O)C1=O (racemic) [Compound 19b, 5-Methyl-1-propyl-5-(4,5,6,7-tetrafluoro-1,3-dihydro-1,3-dioxo-2H-isoindol-2-yl)-2,4,6(1H,3H,5H)-pyrimidinetrione], the activity at 50 µM [1] was 0.13% and the “Average of Growth [%]” value [2] was 1.50%.
For CC(C)N1C(=O)NC(=O)C(C)(N2C(=O)c3c(F)c(F)c(F)c(F)c3C2=O)C1=O (racemic) [Compound 19c, 1-Isopropyl-5-methyl-5-(4,5,6,7-tetrafluoro-1,3-dihydro-1,3-dioxo-2H-isoindol-2-yl)-2,4,6(1H,3H,5H)-pyrimidinetrione], the activity at 50 µM [1] was 0.14% and the “Average of Growth [%]” value [2] was 3.75%.
CCN1C(=O)NC(=O)C(CC)(N2C(=O)c3c(F)c(F)c(F)c(F)c3C2=O)C1=O (racemic) [Compound 19d, 1,5-Diethyl-5-(4,5,6,7-tetrafluoro-1,3-dihydro-1,3-dioxo-2H-isoindol-2-yl)-2,4,6-(1H,3H,5H)-pyrimidinetrione] gave an activity at 50 µM [1] of 0.13%.
For CCCN1C(=O)NC(=O)C(CC)(N2C(=O)c3c(F)c(F)c(F)c(F)c3C2=O)C1=O (racemic) [Compound 19e, 5-Ethyl-1-propyl-5-(4,5,6,7-tetrafluoro-1,3-dihydro-1,3-dioxo-2H-isoindol-2-yl)-2,4,6(1H,3H,5H)-pyrimidinetrione], the activity at 50 µM [1] was 0.12%, the “HUVEC Growth (5 uM) (Control = 100%) Mean” value [3] was 1.68% and the “HUVEC Growth (10 uM) (Control = 100%) Mean” value [3] was 2.14%. The “PC3 Growth (5 uM) (Control = 100%) Mean” value [4] was 31.02% and the “PC3 Growth (10 uM) (Control = 100%) Mean” value [4] was 9.67%.
With CCN1C(=O)NC(=O)C(C)(N2C(=O)c3c(F)c(F)c(F)c(F)c3C2=O)C1=O (racemic) [Compound 19f, 1-Ethyl-5-methyl-5-(4,5,6,7-tetrafluoro-1,3-dihydro-1,3-dioxo-2H-isoindol-2-yl)-2,4,6(1H,3H,5H)-pyrimidinetrione] the activity at 50 µM [1] was 23.8%, the “HUVEC Growth (5 uM) (Control = 100%) Mean” value [3] was 27.17% and the “HUVEC Growth (10 uM) (Control = 100%) Mean” value [3] was 9.00%. The “PC3 Growth (5 uM) (Control = 100%) Mean” value [4] was 25.95% and the “PC3 Growth (10 uM) (Control = 100%) Mean” value [4] was 10.94%.
In the case of CCC1(N2C(=O)c3c(F)c(F)c(F)c(F)c3C2=O)C(=O)NC(=O)N(C(C)C)C1=O (racemic) [Compound 19g, 5-Ethyl-1-isopropyl-5-(4,5,6,7-tetrafluoro-1,3-dihydro-1,3-dioxo-2H-isoindol-2-yl)-2,4,6(1H,3H,5H)-pyrimidinetrione], the activity at 50 µM [1] is reported as 0.13% and the “Average of Growth [%]” value [2] is reported as 1.50%.
Work on CC1(N2C(=O)c3c(F)c(F)c(F)c(F)c3C2=O)C(=O)NC(=O)N(C2CCCCC2)C1=O (racemic) [Compound 19h, 1-Cyclohexyl-5-methyl-5-(4,5,6,7-tetrafluoro-1,3-dihydro-1,3-dioxo-2H-isoindol-2-yl)-2,4,6(1H,3H,5H)-pyrimidinetrione] yielded an activity at 50 µM [1] of 11.8%.
CCC1(N2C(=O)c3c(F)c(F)c(F)c(F)c3C2=O)C(=O)NC(=O)N(C2CCCCC2)C1=O (racemic) [Compound 19i, 1-Cyclohexyl-5-ethyl-5-(4,5,6,7-tetrafluoro-1,3-dihydro-1,3-dioxo-2H-isoindol-2-yl)-2,4,6(1H,3H,5H)-pyrimidinetrione] gave an activity at 50 µM [1] of 11.2%.
For CN1C(=O)NC(=O)C(C)(NC(=O)c2cc(F)c(F)c(F)c2F)C1=O (racemic) [Compound 20a, N-(Hexahydro-1,5-dimethyl-2,4,6-trioxo-5-pyrimidinyl)-2,3,4,5-tetrafluorobenzamide], the activity at 50 µM [1] was 58.3%.
CCCN1C(=O)NC(=O)C(C)(NC(=O)c2cc(F)c(F)c(F)c2F)C1=O (racemic) [Compound 20b, N-(Hexahydro-5-methyl-2,4,6-trioxo-1-propyl-5-pyrimidinyl)-2,3,4,5-tetrafluorobenzamide] gave an activity at 50 µM [1] of 23.1%.
Compound CC(C)N1C(=O)NC(=O)C(C)(NC(=O)c2cc(F)c(F)c(F)c2F)C1=O (racemic) [Compound 20c, N-(Hexahydro-1-isopropyl-5-methyl-2,4,6-trioxo-5-pyrimidinyl)-2,3,4,5-tetrafluorobenzamide] has an activity at 50 µM [1] of 5.63%.
In the case of CCN1C(=O)NC(=O)C(CC)(NC(=O)c2cc(F)c(F)c(F)c2F)C1=O (racemic) [Compound 20d, N-(1,5-Diethyl-hexahydro-2,4,6-trioxo-5-pyrimidinyl)-2,3,4,5-tetrafluorobenzamide], the activity at 50 µM [1] is reported as 31.1%, the “HUVEC Growth (5 uM) (Control = 100%) Mean” value [3] is reported as 11.46% and the “HUVEC Growth (10 uM) (Control = 100%) Mean” value [3] is reported as 14.53%. For the same compound, the “PC3 Growth (10 uM) (Control = 100%) Mean” value [4] was 87.73%.
In the case of CCCN1C(=O)NC(=O)C(CC)(NC(=O)c2cc(F)c(F)c(F)c2F)C1=O (racemic) [Compound 20e, N-(5-Ethyl-hexahydro-2,4,6-trioxo-1-propyl-5-pyrimidinyl)-2,3,4,5-tetrafluorobenzamide], the activity at 50 µM [1] is reported as 0.19%, the “Average of Growth [%]” value [5] is reported as 24.05% and the “Average of Growth [%]” value [2] is reported as 26.27%.
Compound CCN1C(=O)NC(=O)C(C)(NC(=O)c2cc(F)c(F)c(F)c2F)C1=O (racemic) [Compound 20f, N-(1-Ethyl-hexahydro-5-methyl-2,4,6-trioxo-5-pyrimidinyl)-2,3,4,5-tetrafluorobenzamide] has an activity at 50 µM [1] of 16.8%.
In the case of CCC1(NC(=O)c2cc(F)c(F)c(F)c2F)C(=O)NC(=O)N(C(C)C)C1=O (racemic) [Compound 20g, N-(5-Ethyl-hexahydro-1-isopropyl-2,4,6-trioxo-5-pyrimidinyl)-2,3,4,5-tetrafluorobenzamide], the activity at 50 µM [1] is reported as 0.1%, the “Average of Growth [%]” value [5] is reported as 62.03% and the “Average of Growth [%]” value [2] is reported as 38.46%.
With CC1(NC(=O)c2cc(F)c(F)c(F)c2F)C(=O)NC(=O)N(C2CCCCC2)C1=O (racemic) [Compound 20h, N-(1-Cyclohexyl-hexahydro-5-methyl-2,4,6-trioxo-5-pyrimidinyl)-2,3,4,5-tetrafluorobenzamide] the activity at 50 µM [1] was 16.5%, the “Average of Growth [%]” value [5] was 91.14% and the “Average of Growth [%]” value [2] was 34.52%.
CCC1(NC(=O)c2cc(F)c(F)c(F)c2F)C(=O)NC(=O)N(C2CCCCC2)C1=O (racemic) [Compound 20i, N-(1-Cyclohexyl-5-ethyl-hexahydro-2,4,6-trioxo-5-pyrimidinyl)-2,3,4,5-tetrafluorobenzamide] showed an activity at 50 µM [1] of 9.73%.
With CCC1(NC(=O)c2cc(F)c(F)c(F)c2F)C(=O)NC(=O)N(c2ccccc2)C1=O (racemic) [Compound 20k, N-(5-Ethyl-hexahydro-2,4,6-trioxo-1-phenyl-5-pyrimidinyl)-2,3,4,5-tetrafluorobenzamide] the activity at 50 µM [1] was 18.1%.
For NC(=O)c1nnn(Cc2cc(Cl)c(C(=O)c3ccc(Cl)cc3)c(Cl)c2)c1N [CAI, Carboxyamidotriazole, reference compound], the activity at 50 µM ([1]; phthalimides 19, 50 μM daily for four days, DMSO control = 100) was 4.03% and the “Average of Growth [%]” value ([1]; tetrafluorobenzamides 20, 50 μM daily for four days, DMSO control = 100) was 4.03%.
In the case of CCC1(N2C(=O)c3c(F)c(F)c(F)c(F)c3C2=O)C(=O)NC(=O)N(c2ccccc2)C1=O (stereo not drawn) [Compound 19k], the “Average of Growth [%]” value [6] is given as 24.25^[a] %.
